Laboratory results published in PMC7497988 (2020).

How the values were obtained:
[1] = system: A3T3 (DNA, duplex) CGCGAAATTTCGCG; test: ITC; conditions: Na+ (10 mM sodium phosphate, 10 mM NaCl); buffer A pH 7.5, 25 °C; TC into 40 μM A3T3; single site model
[2] = system: (AT)2 (DNA, duplex) CGCGATATCGCG; test: absorption and fluorescence titration; conditions: Na+ (10 mM sodium phosphate, 10 mM NaCl); buffer A pH 7.5, 25 °C; minor groove at 1:1, intercalation at low [DNA]/[TC]
[3] = system: t-(AT)2 (DNA, duplex) ATATCGCGATAT; test: absorption and fluorescence titration; conditions: Na+ (10 mM sodium phosphate, 10 mM NaCl); buffer A pH 7.5, 25 °C; mixed intercalation and incomplete groove binding
[4] = system: AT (DNA, duplex) CGCGATCGCG; test: absorption and fluorescence titration; conditions: Na+ (10 mM sodium phosphate, 10 mM NaCl); buffer A pH 7.5, 25 °C; mixed intercalation and incomplete groove binding
[5] = system: CG (DNA, duplex) CGCGCGCGCGCG; test: absorption titration, NMR line broadening; conditions: Na+ (10 mM sodium phosphate, 10 mM NaCl); buffer A pH 7.5, 25 °C; intercalation only, almost no fluorescence enhancement
[6] = system: A2T2 (DNA, duplex) CGCGAATTCGCG; test: absorption, fluorescence and NMR titration; conditions: Na+ (10 mM sodium phosphate, 10 mM NaCl); buffer A pH 7.5, 25 °C; minor groove at 1:1, intercalation at low [DNA]/[TC]

## CCN(CC)c1ccc2cc(/C=C/c3sc4ccccc4[n+]3C)c(=O)oc2c1
[1]
  Kd: 2900 nM
[2]
  binding: yes
[3]
  binding: yes
[4]
  binding: yes
[5]
  binding: yes
[6]
  binding: yes
